Experimental data from PMC3916804, “The development and validation of an LC-MS/MS method for the determination of a new anti-malarial compound (TK900D) in human whole blood and its application to pharmacokinetic studies in mice” (Malaria Journal, 2014).
Like-named read-outs stand apart in the source and are kept apart here.

Legend:
[1] = pharmacokinetic evaluation in mice (oral and IV), blood levels by LC-MS/MS; type: in vivo, C57/BL6 mice; conditions: for Blood CL total / Vd / Vss / AUC 0 - ∞ / Apparent t 1/2 / T max / Bioavailability / Cmax: male C57/BL6 mice; for AUC 0 - ∞ / Apparent t 1/2 / Cmax: blood; for Apparent t 1/2: mean of 5; for half-life: male, C57/BL6, mouse, whole blood, mice, read-out: apparent half-life, range
Method: Snapshot pharmacokinetic evaluations were performed on a number of analogues from the TK-series anti-malarial compounds. […] The test compound dissolved in a 20 mM Sodium acetate buffer (pH 4.0): Ethanol: PEG400 (70:5:25; v/v/) drug vehicle was administered orally to healthy C57/BL6 mice (n = 5) at doses of 40 and 20 mg/kg, and intravenously at doses of 5 and 2.5 mg/kg. Blood samples were collected at predetermined sampling times (except for the first sampling time, i.e. 5 minutes after dosing for the IV group and 10 minutes for the oral group, the sampling times were 0.5,1, 3, 5, 7, 12 and 24 h after dosing) by bleeding the tip of the tail, and analysed using a validated LC-MS/MS assay. Back-calculated concentrations of the blood samples were obtained from a standard regression curve with nine concentration levels (3.910 to 1000 ng/ml). Concentration vs. time profiles were constructed and the data analysed with Summit PK software to obtain the pharmacokinetic parameters.

[2] = stock solution stability in methanol; type: physicochemical; conditions: for stock solution stability in methanol, % Reference (peak area vs fresh): 100.0 μg/ml in methanol, eight days, n = 6; for stability in methanol (in words): at room temperature, 5°C, and -20°C
Method: The stability of TK900D and TK900E in methanol was evaluated at room temperature, ~ 5°C and ~ -20°C. Stock solutions with concentrations of 100.0 μg/ml of TK900D and the internal standard were prepared in methanol. Three aliquots of each of the stock solutions were kept at room temperature, ~ 5 °C, and ~ –20°C, respectively, for eight days. After diluting the stored stock solutions in injection solvent to a 100.0 ng/ml, the stability of TK900D and that of the internal standard were assessed by comparing the peak areas obtained from the stored stock solutions with peak areas of the freshly prepared stock solutions. For stock solution results to be acceptable the percentage reference value should not exceed 15%.

[3] = on-instrument stability (OIS) of extracted samples; type: physicochemical; conditions: for on-instrument stability (in words): ~ 8.2 h on-instrument; for OIS (on-instrument stability), % Bias: extracted samples on instrument, n = 6
Method: In order to assess the stability of the analytes while awaiting injection on instrument, on-instrument stability (OIS) was assessed for the period of time that the extracted samples were expected to stay on-instrument during the batch run-time (~ 9 h). Quality control samples at high and low concentrations (800.0 ng/ml and 10.01 ng/ml, respectively), were extracted in replicates of six and injected at the beginning and end of the run (i.e. six QC-high and six QC-low at the beginning of the run and another set of six QC-high and QC-low at the end of the run bracketed with quality control samples). The mean measured concentration of the OIS-samples (injected at the end of the run) and OIS-reference samples (injected at the beginning of the run) were compared: in order to be acceptable, their percentage difference should be within ± 15%.

[4] = system: P. falciparum CQ-sensitive (3D7) strain; set-up: method as in PMID 24900630; conditions: read-out: in vitro antiplasmodial activity IC50; cited from earlier work
[5] = system: P. falciparum CQ-resistant (K1) strain; set-up: method as in PMID 24900630; conditions: read-out: in vitro antiplasmodial activity IC50; cited from earlier work
[6] = system: P. falciparum CQ-resistant (W2) strain; set-up: method as in PMID 24900630; conditions: read-out: in vitro antiplasmodial activity IC50; cited from earlier work
[7] = long-term stability in human whole blood; type: in vitro ADME; conditions: for Long term stability, % Bias from nominal: human whole blood, ~ -80°C, 181 days, n = 6
Method: For the determination of long-term stability in human whole blood, TK900D spiked quality control samples at 800.0 ng/ml and 10.01 ng/ml were stored at ~ -80°C for 181 days (long enough to cover the time period elapsed from the first day of sample collection to the final sample analysis). These samples were thawed on the day of testing and run together with freshly prepared calibration standards and quality controls and the values were calculated from the resulting calibration curve obtained from the calibration standards.

[8] = freeze and thaw stability in blood; type: in vitro ADME, human; conditions: for Freeze and thaw stability, % Bias from nominal: blood, three freeze-thaw cycles from ~ -80°C, n = 6
Method: Quality control blood samples at high and low concentration, 800.0 and 10.01 ng/ml respectively, of TK900D stored frozen at ~ -80°C were allowed to thaw completely unassisted at room temperature and then refrozen for 12 to 24 hours. After three such freeze-thaw cycles the samples were assayed in the third validation run and the measured concentrations were compared with the nominal concentrations of these samples.

[9] = short-term (on-bench) stability in blood; type: in vitro ADME, human; conditions: for On bench stability, % Bias from nominal: blood, room temperature on bench, n = 6
Method: […] The samples were assayed in one of the validation batches. The measured concentrations were compared with the nominal concentrations of these samples.

CHO mammalian cell line = system: CHO mammalian cell line; set-up: method as in PMID 24900630; conditions: MTT assay, read-out: cytotoxicity IC50; cited from earlier work
[10] = other: oral and intravenous, over all oral and IV dose groups
[11] = as summarised in abstract (matches oral 40 and 20 mg/kg groups)

## CC(C)(C)n1nnnc1C(NCCNc1ccnc2cc(Cl)ccc12)c1ccc(Cl)cc1 (stereo not drawn) [TK900E]
[1]; IV 2.5 mg/kg
  Blood CL total: 51.2 mL/min/kg
  Vd: 7.0 L/kg
  Vss: 6.5 L/kg
  AUC 0 - ∞: 107 µmol·min/L
  Apparent t 1/2: 1.6 h
[1]; IV 5.0 mg/kg
  Blood CL total: 51.0 mL/min/kg
  Vd: 10.3 L/kg
  Vss: 12.6 L/kg
  AUC 0 - ∞: 221 µmol·min/L
  Apparent t 1/2: 2.5 h
[1]; oral 20 mg/kg
  T max: 0.8 h
  AUC 0 - ∞: 222 µmol·min/L
  Cmax: 940 nM
  Apparent t 1/2: 3.6 h
[1]; oral 20 mg/kg vs IV 2.5 mg/kg
  Bioavailability: 25.9%
[1]; oral 40 mg/kg
  T max: 1.0 h
  AUC 0 - ∞: 541 µmol·min/L
  Cmax: 2810 nM
  Apparent t 1/2: 4.0 h
[1]; oral 40 mg/kg vs IV 5 mg/kg
  Bioavailability: 30.6%
[1]; [10]
  half-life: 1.6 to 4 h
[1]; [11]
  half-life: 3.6 to 4 h
[2]; room temperature
  stock solution stability in methanol, % Reference (peak area vs fresh): 102.8%
[2]; ~ 5°C
  stock solution stability in methanol, % Reference (peak area vs fresh): 103.5%
[2]; ~ -20°C
  stock solution stability in methanol, % Reference (peak area vs fresh): 98.2%
[2]
  stability in methanol (in words): stable
[3]
  on-instrument stability (in words): stable
[4]
  IC50: 2 nM
[5]
  IC50: 1 nM
[6]
  IC50: 25.5 nM

## CC(C)(C)n1nnnc1C(NCCNc1ccnc2cc(Cl)ccc12)c1ccc(Cl)c(Cl)c1 (stereo not drawn) [TK900D]
[1]; IV 2.5 mg/kg
  Blood CL total: 48.9 mL/min/kg
  Vd: 7.9 L/kg
  Vss: 8.7 L/kg
  AUC 0 - ∞: 104 µmol·min/L
  Apparent t 1/2: 1.9 h
[1]; IV 5.0 mg/kg
  Blood CL total: 44.8 mL/min/kg
  Vd: 8.9 L/kg
  Vss: 9.1 L/kg
  AUC 0 - ∞: 222 µmol·min/L
  Apparent t 1/2: 2.3 h
[1]; oral 20 mg/kg
  T max: 1.4 h
  AUC 0 - ∞: 256 µmol·min/L
  Cmax: 540 nM
  Apparent t 1/2: 6.0 h
[1]; oral 20 mg/kg vs IV 2.5 mg/kg
  Bioavailability: 30.8%
[1]; oral 40 mg/kg
  T max: 1.4 h
  AUC 0 - ∞: 287 µmol·min/L
  Cmax: 790 nM
  Apparent t 1/2: 3.9 h
[1]; oral 40 mg/kg vs IV 5 mg/kg
  Bioavailability: 16.2%
[1]; [10]
  half-life: 2 to 6 h
[1]; [11]
  half-life: 4 to 6 h
[2]; room temperature
  stock solution stability in methanol, % Reference (peak area vs fresh): 106.9%
[2]; ~ 5°C
  stock solution stability in methanol, % Reference (peak area vs fresh): 105.2%
[2]; ~ -20°C
  stock solution stability in methanol, % Reference (peak area vs fresh): 100.3%
[2]
  stability in methanol (in words): stable
[7]; 181 days stored at -80°C
  stability in human whole blood (in words): stable
[7]; High (800.0 ng/ml)
  Long term stability, % Bias from nominal: 0.7%
[7]; Low (10.01 ng/ml)
  Long term stability, % Bias from nominal: -4.0%
[8]; at least three freeze-thaw cycles
  freeze-thaw stability (in words): stable
[8]; High (800.0 ng/ml)
  Freeze and thaw stability, % Bias from nominal: 6.6%
[8]; Low (10.01 ng/ml)
  Freeze and thaw stability, % Bias from nominal: 8.6%
[9]; High (800.0 ng/ml)
  On bench stability, % Bias from nominal: 8.3%
[9]; Low (10.01 ng/ml)
  On bench stability, % Bias from nominal: 5.2%
[9]; ~ 12 h on-bench at room temperature
  on-bench stability (in words): stable
[3]; High (800.0 ng/ml)
  OIS (on-instrument stability), % Bias: 0.9%
[3]; Low (10.01 ng/ml)
  OIS (on-instrument stability), % Bias: 4.5%
[3]
  on-instrument stability (in words): stable
[4]
  IC50: 0.4 nM
[5]
  IC50: 8.2 nM
[6]
  IC50: 30.5 nM
CHO mammalian cell line
  IC50: 10500 nM

## CCN(CC)CCCC(C)Nc1ccnc2cc(Cl)ccc12 (stereo not drawn) [CQ, Chloroquine, reference compound]
[4]
  IC50: 0.2 nM
[5]
  IC50: 36 nM
[6]
  IC50: 59.1 nM
